Experimental data as given in patent publication US11291675B2, “6′-sialyllactose for use in the treatment of hearing loss” (Rheinische Friedrich-Wilhelms-Universität Bonn, priority 2017, dated 2022).
“Also recorded” adds a separate entry of the source.

Experiments:
human THP-1 macrophages = assay: Beads phagocytosis in LPS-activated THP-1 macrophages (flow cytometry); format: cell-based; conditions: THP-1 macrophages activated by 3 μg/ml LPS, 24 hours; 0.5 μM test substance; vs LPS alone
Method: The effect of 6′- and 3′-sialyllactose on beads phagocytosis was determined in the human mononuclear phagocyte cell line THP-1. The human mononuclear phagocyte cell line THP-1 was maintained in RPMI medium supplemented with 1% L-glutamine, 1% Penicillin/Streptomycin and 1% heat-inactivated chicken serum, at 5% CO2 and 37° C. For passaging, the cells were transferred to a 50 mL Falcon tube and centrifuged at 1300 rpm for 3 min. The supernatant was removed and the pellet was re-suspended in 5 mL of warm medium. For differentiation into macrophage-like cells, the cell density was adjusted to approximately 1×10^6 cells/mL. The cell suspension was mixed with 10 ng/mL PMA (Phorbol 12-myristate 13-acetate, Sigma) and distributed in volumes according to each experiment. Cells were incubated for 48 h, washed twice with medium and then cultured in medium for additional 48 h without PMA. For experimentation THP-1 macrophages were cultured in RPMI medium supplemented with 1% L-glutamine, 1% Penicillin/Streptomycin and 1% heat-inactivated chicken serum, at 5% CO2 and 37° C. […]
Beads phagocytosis was analyzed by flow cytometry (BD FACSCalibur) by quantification of the percentage of cells having ingested 2 or more beads.

[1] = system: CD68+ mononuclear phagocytes in the spiral ganglion; assay: Macrophage activation (CD68+ cells) in the spiral ganglion, animal model of antibiotic-induced hearing loss; format: in vivo, mouse; conditions: seven consecutive days
Method: To determine the effect of 6′-sialyllactose on macrophage activation in the inner ear, one-week old C57BL/6 pubs of mice were treated subcutaneously with either 50 μl PBS, 50 μl of 200 mg/kgbw neomycin (Neo, Sigma, N5285) in PBS, or 50 μl of 200 mg/kgbw neomycin (Sigma, N5285) plus 100 mg/kgbw 6′-sialyllactose (Carbosynth, OS04398) in PBS or only PBS as vehicle control for seven consecutive days. Mice were sacrificed two weeks after the last injection.
For further investigations, cochleae of the mice were isolated, post-fixed in 4% paraformaldehyde (PFA), decalcified in 5% EDTA, incubated in 30% sucrose until fully soaked, embedded in a cryoprotectant and cut into 20 μm thin slices from the apex to the base of the cochlea with a cryostat. For quantification of the macrophage activation in the cochlea, cryosections from different levels of the cochlea were chosen and co-stained with antibodies against the macrophage activation marker CD68 and the cellular nuclei marker DAPI. […] The area of the spiral ganglion was selected and measured using ImageJ. The CD68-positive cells were counted within the chosen area and the cell density of the macrophage in the spiral ganglion was calculated and normalized to the PBS vehicle treated condition. Data were analyzed by one-way ANOVA with Bonferroni post-hoc correction.

[2] = system: hair cells of the middle turn of the cochlea; assay: Hair cell count (Myo7A+ cells) in the cochlea, animal model of antibiotic-induced hearing loss; format: in vivo, mouse; conditions: seven consecutive days
Method: One-week old BL6 pubs of mice were treated subcutaneously with either 50 μl PBS, 50 μl of 200 mg/kgbw neomycin (Sigma, N5285) in PBS, or 50 μl of 200 mg/kgbw neomycin (Sigma, N5285) plus 100 mg/kgbw 6′-sialyllactose (Carbosynth, OS04398) in PBS for seven consecutive days. Mice were sacrificed two weeks after the last injection. For further investigations cochlea of the mice were isolated, post-fixed in 4% PFA, decalcified in 5% EDTA, incubated in 30% sucrose until fully soaked, embedded in a cryoprotectant and cut into 20 μm thin slices from the apex to base of the cochlea with a cryostat. For quantification of the hair cell density in the cochlea, cryosections from different levels of the cochlea were chosen and co-stained with antibodies against the hair cell marker Myosin7A (Myo7A) and the cellular nuclei marker DAPI. Images were taken with a confocal microscope and divided into different sections from apex to base of the cochlea. Myosin7a-positive cells were counted in each section.

[3] = system: sensory neurons in the spiral ganglion; assay: Sensory neuron density (NeuN+ cells) in the spiral ganglion, animal model of antibiotic-induced hearing loss; format: in vivo, mouse; conditions: seven consecutive days
Method: One-week old C57BL/6 pubs of mice were treated subcutaneously with either 50 μl PBS, 50 μl of 200 mg/kgbw neomycin (Sigma, N5285) in PBS, or 50 μl of 200 mg/kgbw neomycin (Sigma, N5285) plus 100 mg/kgbw 6′-sialyllactose (Carbosynth, OS04398) in PBS for seven consecutive days. Mice were sacrificed 2 weeks after the last injection. For further investigations cochlea of the mice were isolated, post-fixed in 4% PFA, decalcified in 5% EDTA, incubated in 30% sucrose until fully soaked, embedded in a cryoprotectant and cut into 20 μm thin slices from the apex to base of the cochlea with a cryostat. For quantification of the sensory neurons in the cochlea, cryosections from different levels of the cochlea were chosen and stained with antibodies for neuronal nuclei (NeuN) and the cellular nuclei marker DAPI. Z-stacks of 3×2 μm images were taken with a confocal microscope and stacks were afterwards combined to maximal projection images. The area of the spiral ganglion was selected and measured using ImageJ.
The NeuN-positive cells of the mice treated with neomycin (Neo), neomycin plus 6′-sialyllactose (Neo+6SL) or vehicle control (PBS) within the chosen area were counted and the neuronal density of the spiral ganglion was calculated and normalized to the PBS treated condition. […] Data were analyzed by one-way ANOVA with Bonferroni post-hoc correction (*p<0.05).

[4] = system: human iPS cell-derived sensory neurons co-cultured with human THP1-macrophages; assay: Neural branches length in co-culture of iPS cell-derived sensory neurons and THP1 macrophages; format: cell-based; conditions: neurons plus THP1 macrophages, 100 μM 6′-sialyllactose, 48 hours; vs co-culture without 6′-sialyllactose
Method: The effect of 6′-sialyllactose on sensory neural branches was determined in a human co-culture system with induced pluripotent stem cell derived sensory neurons and human THP1-macrophages.
Human sensory neurons were obtained from human induced pluripotent stem (iPS) cells. At day 0, the iPS colonies were detached by collagenase IV, collected by sedimentation, and resuspended in DMEM/F12 medium supplemented by 20% KO serum, 1% nonessential amino acids, 10 μM SB (SB-431542, inhibitor of TGF-beta), 1 μM dorsomorphin, 3 μM CHIR, and 0.5 μM purmorphamine for 2 days. […] Afterwards, the neural stem cells (NSCs) were ready for differentiation. […]
The human THP1 mononuclear phagocyte cell line was maintained in RPMI medium supplemented with 1% L-glutamine, 1% Penicillin/Streptomycin, 1% sodium-pyruvate, 1% heat-inactivated chicken serum, and 1% N2 supplement at 5% CO2 and 37° C. […] For experiments, THP-1 macrophages were scraped, counted and added to the sensory iPS cell-derived neurons in co-culture medium 1:1 ratio (N2B27 medium plus BDNF, GDNF, dbcAMP) and treated with 100 μM 6′-sialyllactose (Carbosynth), that was re-purified by a HPLC-based anion exchange chromatography before use, or vehicle control for another 48 hours. […]

[5] = mice, 200 mg/kgbw neomycin alone s.c., vs PBS

Compound | relative beads phagocytosis rate (cells having ingested 2 or more beads) (human THP-1 macrophages) | CD68+ cells per area in the spiral ganglion [1, 5] | Myo7A-positive hair cells of the middle turn of the cochlear organ of Corti [2, 5] | NeuN-positive cells in the spiral ganglion [3, 5] | CD68+ macrophages per area in the spiral ganglion (macrophage activation), normalized to PBS ([1]; one-week old C57BL/6 mice, 200 mg/kgbw neomycin plus 100 mg/kgbw 6′-sialyllactose s.c., sacrificed two weeks after last injection, vs neomycin alone) | Myo7A-positive hair cells of the middle turn of the cochlea per slice ([2]; one-week old BL6 mice, 200 mg/kgbw neomycin plus 100 mg/kgbw 6′-sialyllactose s.c., vs neomycin alone) | NeuN-positive cells (neuronal density) in the spiral ganglion, normalized to PBS ([3]; one-week old C57BL/6 mice, 200 mg/kgbw neomycin plus 100 mg/kgbw 6′-sialyllactose s.c., vs neomycin alone) | relative neural branches length [4]
CC(=O)NC1C(O)CC(OC2C(O)C(CO)OC(OC3C(CO)OC(O)C(O)C3O)C2O)(C(=O)O)OC1[C@H](O)[C@H](O)CO (stereo partly drawn) [3′-sialyllactose, reference compound] | had no effect on the LPS-induced uptake of beads; also recorded: only showed a tendency without significance |  |  |  |  |  |  | 
NC[C@@H]1O[C@H](O[C@H]2[C@@H](O)[C@H](O[C@@H]3[C@@H](O)[C@H](N)C[C@H](N)[C@H]3O[C@H]3O[C@H](CN)[C@@H](O)[C@H](O)[C@H]3N)O[C@@H]2CO)[C@H](N)[C@@H](O)[C@@H]1O [neomycin, reference compound] |  | strongly increases the number of mononuclear phagocytes | strong reduction | reduction |  |  |  | 
Neu5Ac-α(2→6)-Gal-β(1→4)-Glc [6′-sialyllactose] | reduced the phagocytic uptake of microsphere beads; also recorded: reduced phagocytosis of beads |  |  |  | slight attenuation of macrophage activation; also recorded: might partially be prevented | partially rescued; also recorded: reduced the neomycin-induced loss of the hair cells | less present; also recorded: might reduce the neomycin-induced loss of the sensory neurons | could prevent the reduction in neural branches length
